Earlier results, collected in patent US20130315934A1, “Methods and Compositions for Assessing and Treating Cancer” (Yale University, priority 2010, published 2013).

Experiments:
[1] = tested on: YUHEF melanoma cells harboring ACK1-S212L; settings: cell culture
[2] = tested on: YULOVY melanoma cells possessing the S522I variant; settings: cell culture, YULOVY melanoma cells (ACK1 S522I variant)
purified ACK1 = purified ACK1 (Homo sapiens, UniProt Q07912); settings: in vitro, purified enzyme
PAK-4 = PAK-4 (Homo sapiens, UniProt O96013); settings: PAK family members
PAK-4, sequence (O96013 whole entry): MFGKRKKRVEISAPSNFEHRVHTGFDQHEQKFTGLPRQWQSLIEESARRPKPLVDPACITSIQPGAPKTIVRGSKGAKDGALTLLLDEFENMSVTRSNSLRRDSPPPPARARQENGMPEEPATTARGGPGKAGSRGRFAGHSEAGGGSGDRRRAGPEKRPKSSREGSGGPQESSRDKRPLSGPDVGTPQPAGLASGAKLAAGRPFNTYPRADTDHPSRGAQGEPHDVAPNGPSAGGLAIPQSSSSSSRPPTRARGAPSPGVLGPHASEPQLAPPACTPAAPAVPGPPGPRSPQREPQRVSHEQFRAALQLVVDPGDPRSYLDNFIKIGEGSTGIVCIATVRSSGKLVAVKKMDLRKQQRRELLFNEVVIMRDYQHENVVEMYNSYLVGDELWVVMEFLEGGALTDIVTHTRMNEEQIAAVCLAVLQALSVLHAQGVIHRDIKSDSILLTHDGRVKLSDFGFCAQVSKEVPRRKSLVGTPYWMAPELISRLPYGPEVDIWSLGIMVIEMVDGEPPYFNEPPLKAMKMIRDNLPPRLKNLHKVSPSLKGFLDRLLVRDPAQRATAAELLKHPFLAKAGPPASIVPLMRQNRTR

purified ACK1, sequence (Q07912 whole entry): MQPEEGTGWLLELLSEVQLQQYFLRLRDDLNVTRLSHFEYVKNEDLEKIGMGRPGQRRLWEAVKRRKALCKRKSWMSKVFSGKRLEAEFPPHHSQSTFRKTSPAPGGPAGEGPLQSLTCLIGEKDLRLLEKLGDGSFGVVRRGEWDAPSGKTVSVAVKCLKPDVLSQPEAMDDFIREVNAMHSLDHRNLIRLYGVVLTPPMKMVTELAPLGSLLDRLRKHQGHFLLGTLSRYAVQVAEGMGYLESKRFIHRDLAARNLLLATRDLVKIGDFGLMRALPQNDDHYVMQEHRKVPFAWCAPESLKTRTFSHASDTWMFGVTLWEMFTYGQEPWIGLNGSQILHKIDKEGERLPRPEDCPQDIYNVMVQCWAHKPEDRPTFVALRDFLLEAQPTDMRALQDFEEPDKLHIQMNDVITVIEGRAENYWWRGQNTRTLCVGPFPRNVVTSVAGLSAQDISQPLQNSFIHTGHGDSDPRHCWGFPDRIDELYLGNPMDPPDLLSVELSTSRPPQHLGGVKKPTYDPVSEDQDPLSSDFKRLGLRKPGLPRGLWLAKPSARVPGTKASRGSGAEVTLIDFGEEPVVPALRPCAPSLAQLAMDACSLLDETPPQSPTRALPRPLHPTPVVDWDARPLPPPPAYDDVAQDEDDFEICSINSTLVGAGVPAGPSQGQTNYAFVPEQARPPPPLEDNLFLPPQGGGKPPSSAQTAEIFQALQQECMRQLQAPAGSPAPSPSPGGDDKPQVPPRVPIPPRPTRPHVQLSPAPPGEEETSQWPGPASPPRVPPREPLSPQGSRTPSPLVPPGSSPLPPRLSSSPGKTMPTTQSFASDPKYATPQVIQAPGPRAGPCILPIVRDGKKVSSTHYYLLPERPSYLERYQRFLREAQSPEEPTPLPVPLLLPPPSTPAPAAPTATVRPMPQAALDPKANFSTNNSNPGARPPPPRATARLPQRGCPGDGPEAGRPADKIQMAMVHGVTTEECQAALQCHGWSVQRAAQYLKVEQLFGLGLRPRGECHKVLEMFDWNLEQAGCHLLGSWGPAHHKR

| PAK family selectivity of inhibition (PAK-4) | SMILES | inhibition of proliferation [1] | inhibition of proliferation [2] | inhibition of purified ACK1 (purified ACK1) |
| --- | --- | --- | --- | --- |
| – | CCCS(=O)(=O)Nc1ccc(F)c(C(=O)c2c[nH]c3ncc(-c4ccc(Cl)cc4)cc23)c1F [PLX4032] | did not inhibit the proliferation | did not inhibit the proliferation | highly effective in vitro inhibitor |
| inhibit only PAK-4 | Cc1nc(Nc2[nH]nc3c2CN(C(=O)N[C@H](CN(C)C)c2ccccc2)C3(C)C)c2sccc2n1 [PF-3758309] | – | – | – |
